Read-outs that look alike come from different tables or passages of the source. Some results are limits rather than exact numbers.

The target of one assay is BTK^WT (Homo sapiens (Human), UniProt Q06187). The assay is described as follows: BTK^WT binding affinity (TR-FRET, LanthaScreen). As for the experimental part:
BTK^WT binding affinity of each compound tested was determined using a time-resolved fluorescence resonance energy transfer (TR-FRET) methodology. 2.5 nM Recombinant BTK^WT kinase, varying concentrations of inhibitor, 2 nM LanthaScreen™ Eu anti-His Antibody and 15 nM Kinase Tracer 236 was incubated in 1× LanthaScreen™ Kinase Buffer A for 5 h. Recombinant BTK kinase and all LanthaScreen™ components were purchased from Invitrogen. Measurements were performed in a reaction volume of 30 μL using half-area 96-well assay plates. The TR-FRET signal was read on a plate reader with an excitation wavelength of 340 nm and detection wavelengths of 615 and 665 nm. Binding affinity was determined for each compound by measuring TR-FRET signal at various concentrations of compound and plotting the relative fluorescence units against the inhibitor concentration to estimate the IC50 from log [Inhibitor] vs response using the Variable Slope model in Graphpad prism from Graphpad software (SanDiego, Calif.).
For orientation: Time-resolved FRET reads energy transfer from a long-lived donor to a nearby acceptor.

For another assay, the target named is BTK^C481S (Homo sapiens (Human), UniProt Q06187, C481S). In words: BTK^C481S binding affinity (TR-FRET, LanthaScreen). Conditions: 5 h incubation. The method, then: BTK^C481S binding affinity of each compound tested was determined using a time-resolved fluorescence resonance energy transfer (TR-FRET) methodology. 5 nM Recombinant […] kinase, varying concentrations of inhibitor, 2 nM LanthaScreen™ Eu anti-His Antibody and 30 nM Kinase Tracer 236 was incubated in 1× LanthaScreen™ Kinase Buffer A for 5 h. Recombinant BTK^C481S kinase was purchased from SignalChem and all LanthaScreen™ components were purchased from Invitrogen. Measurements were performed in a reaction volume of 30 μL using half-area 96-well assay plates. The TR-FRET signal was read on a plate reader with an excitation wavelength of 340 nm and detection wavelengths of 615 and 665 nm. Binding affinity was determined for each compound by measuring TR-FRET signal at various concentrations of compound and plotting the relative fluorescence units against the inhibitor concentration to estimate the IC50 from log [Inhibitor] vs response using the Variable Slope model in Graphpad prism from Graphpad software (SanDiego, Calif.).

The next assay deals with EGFR (Homo sapiens (Human), UniProt P00533). The assay is described as follows: EGFR binding affinity (TR-FRET, LanthaScreen). Conditions: 5 h incubation. As for the experimental part: EGFR binding affinity was determined using a time-resolved fluorescence resonance energy transfer (TR-FRET) methodology. 2.5 nM Recombinant EGFR, varying concentrations of inhibitor, 2 nM LanthaScreen™ Eu anti-GST Antibody and 3 nM Kinase Tracer 199 was incubated in 1× LanthaScreen™ Kinase Buffer A for 5 h. Recombinant EGFR and all LanthaScreen™ components were purchased from Invitrogen. Measurements were performed in a reaction volume of 30 μL using half-area 96-well assay plates. The TR-FRET signal was read on a plate reader with an excitation wavelength of 340 nm and detection wavelengths of 615 and 665 nm. Binding affinity was determined for each compound by measuring TR-FRET signal at various concentrations of compound and plotting the relative fluorescence units against the inhibitor concentration to estimate the IC50 from log [Inhibitor] vs response using the Variable Slope model in Graphpad prism from Graphpad software (SanDiego, Calif.).

For assay [1], the system named is OCI-Ly10 human DLBCL cells. The assay is described as follows: OCI-Ly10 anti-proliferative activity (Resazurin, 72 h). It is filed as cell-based. The following applies: read-out: Proliferation OCI-Ly10-IC50. The method, then: Compounds were assayed for effects on the growth of OCI-Ly10 human DLBCL cells that are dependent on NFκB signalling. OCI-Ly10 cells were grown in suspension in T225 flasks, centrifuged and re-suspended in 2.5% FBS containing media. Cells were then plated at 7.5×10^3 cells per well in 96-well plates in varying concentrations of compound and incubated for 72 h at 37° C. An additional plate of cells to be used as the Day 0 read was seeded without compound addition, Resazurin was added to each well, incubated for 5 h and the fluorescence measured at 590 nm. After 72 h of compound treatment, Resazurin was added to each well of the compound treated plates, incubated for 5 h and the fluorescence measured at 590 nm. The IC50 was then calculated by subtracting the average Day 0 value from each well value from the treated plates, each treatment was then calculated as a percentage of the DMSO control and the percentages plotted against the inhibitor concentration to estimate the IC50 from log [Inhibitor] vs response using the Variable Slope model in Graphpad prism from Graphpad software (SanDiego, Calif.).

Setting [2] is: TR-FRET binding, 5 h incubation, read-out: BTK^WT IC50.

Sequence of EGFR (P00533 25-1210): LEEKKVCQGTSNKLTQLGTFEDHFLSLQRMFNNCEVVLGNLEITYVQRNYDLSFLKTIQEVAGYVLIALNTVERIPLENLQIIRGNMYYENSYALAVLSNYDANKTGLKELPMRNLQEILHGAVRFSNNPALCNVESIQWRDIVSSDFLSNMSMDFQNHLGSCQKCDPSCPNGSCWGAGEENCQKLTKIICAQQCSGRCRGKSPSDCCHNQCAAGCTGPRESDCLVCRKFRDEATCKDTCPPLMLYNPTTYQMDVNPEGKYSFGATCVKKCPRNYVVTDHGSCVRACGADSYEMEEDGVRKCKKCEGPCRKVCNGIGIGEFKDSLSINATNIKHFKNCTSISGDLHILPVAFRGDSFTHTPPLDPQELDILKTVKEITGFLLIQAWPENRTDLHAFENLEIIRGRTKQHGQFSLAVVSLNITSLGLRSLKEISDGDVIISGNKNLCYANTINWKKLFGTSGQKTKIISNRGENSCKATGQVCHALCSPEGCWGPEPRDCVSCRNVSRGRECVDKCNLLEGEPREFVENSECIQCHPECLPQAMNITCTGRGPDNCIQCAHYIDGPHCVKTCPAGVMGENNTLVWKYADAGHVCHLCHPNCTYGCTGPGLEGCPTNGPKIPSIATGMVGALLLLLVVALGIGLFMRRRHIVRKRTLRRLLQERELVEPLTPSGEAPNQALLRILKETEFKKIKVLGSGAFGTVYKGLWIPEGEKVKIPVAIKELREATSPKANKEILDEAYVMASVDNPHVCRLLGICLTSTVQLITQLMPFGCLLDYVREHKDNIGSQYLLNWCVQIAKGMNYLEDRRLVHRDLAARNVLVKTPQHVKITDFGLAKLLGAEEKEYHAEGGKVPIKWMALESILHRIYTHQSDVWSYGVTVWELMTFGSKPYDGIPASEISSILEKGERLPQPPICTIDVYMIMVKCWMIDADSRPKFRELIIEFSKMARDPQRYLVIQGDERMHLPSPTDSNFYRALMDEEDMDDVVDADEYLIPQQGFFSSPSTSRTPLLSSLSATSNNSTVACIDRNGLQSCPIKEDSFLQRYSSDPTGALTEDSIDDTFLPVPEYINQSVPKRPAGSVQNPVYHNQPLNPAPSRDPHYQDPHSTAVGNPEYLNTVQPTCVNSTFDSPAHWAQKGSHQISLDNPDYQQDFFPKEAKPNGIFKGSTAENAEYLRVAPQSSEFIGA
Sequence of BTK^C481S (Q06187 whole entry C481S): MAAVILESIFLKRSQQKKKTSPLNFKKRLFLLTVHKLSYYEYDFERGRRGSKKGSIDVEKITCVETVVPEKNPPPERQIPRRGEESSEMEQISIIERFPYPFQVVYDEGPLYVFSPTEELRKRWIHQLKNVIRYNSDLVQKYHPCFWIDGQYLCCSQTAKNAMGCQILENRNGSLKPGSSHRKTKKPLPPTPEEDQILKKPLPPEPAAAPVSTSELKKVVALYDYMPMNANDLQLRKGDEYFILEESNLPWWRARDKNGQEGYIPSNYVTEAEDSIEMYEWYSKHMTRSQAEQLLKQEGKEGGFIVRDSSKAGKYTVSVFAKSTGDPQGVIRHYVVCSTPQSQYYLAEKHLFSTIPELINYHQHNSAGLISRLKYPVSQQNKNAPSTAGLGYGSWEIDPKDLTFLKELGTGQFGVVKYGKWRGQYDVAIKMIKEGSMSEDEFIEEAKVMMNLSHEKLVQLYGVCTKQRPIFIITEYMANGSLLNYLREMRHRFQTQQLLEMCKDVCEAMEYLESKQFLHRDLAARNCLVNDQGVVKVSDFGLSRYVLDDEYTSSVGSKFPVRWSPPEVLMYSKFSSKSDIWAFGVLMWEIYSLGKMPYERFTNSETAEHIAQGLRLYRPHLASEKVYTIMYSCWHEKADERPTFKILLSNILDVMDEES
Sequence of BTK^WT (Q06187 whole entry): as the sequence (Q06187 whole entry C481S) above, with S481C counted along it

As to `COc1ccc(F)cc1C(=O)NCc1ccc(-c2nn(C3CCC(C)(O)CC3)c3ncnc(N)c23)cc1` (single isomer, unassigned) [Example 95, N-[[4-[4-Amino-1-(4-hydroxy-4-methyl-cyclohexyl)pyrazolo[3,4-d]pyrimidin-3-yl]phenyl]methyl]-5-fluoro-2-methoxy-benzamide], the IC50 at BTK^WT (setting [2]) was no more than 10 nM; on BTK^C481S, no more than 10 nM; on EGFR, 100 to 1000 nM; in assay [1], 10 to 100 nM.
For `COc1ccccc1C(=O)NCc1ccc(-c2nn(C3CCC(C(=O)N(C)C)CC3)c3ncnc(N)c23)cc1` (single isomer, unassigned; isomer 1) [33-isomer 1], the IC50 at BTK^WT (setting [2]) was no more than 10 nM; at BTK^C481S, no more than 10 nM; on EGFR it was 100 to 1000 nM; in assay [1], 10 to 100 nM.
For `COc1ccc(F)cc1C(=O)NCc1ccc(-c2nn(C3CCCC3)c3ncnc(N)c23)cc1` [Example 4, N-[[4-(4-Amino-1-cyclopentyl-pyrazolo[3,4-d]pyrimidin-3-yl)phenyl]methyl]-5-fluoro-2-methoxy-benzamide], the IC50 is no more than 10 nM at BTK^WT (setting [2]); 0.8 nM at BTK^WT (Table 6, numeric values, read-out: BTK Binding IC50); no more than 10 nM at BTK^C481S; 100 to 1000 nM at EGFR; 10 to 100 nM in assay [1] (Homo sapiens, OCI-Ly10, 72 h).
Consider `COc1ccccc1C(=O)NCc1ccc(-c2nn(C3CCCO3)c3ncnc(N)c23)cc1` (stereo not shown) [Example 5, N-[[4-(4-amino-1-tetrahydrofuran-2-yl-pyrazolo[3,4-d]pyrimidin-3-yl)phenyl]methyl]-2-methoxy-benzamide], for which the IC50 at BTK^WT (setting [2]) lay within 10 to 100 nM; on BTK^C481S, 10 to 100 nM; at EGFR, 1000 to 10000 nM; in assay [1] (Homo sapiens, OCI-Ly10, 72 h) it was 100 to 1000 nM.
Take `CCOc1ccccc1C(=O)NCc1ccc(-c2nn(C3CCCC3)c3ncnc(N)c23)cc1` [Example 7, N-[[4-(4-amino-1-cyclopentyl-pyrazolo[3,4-d]pyrimidin-3-yl)phenyl]methyl]-2-ethoxy-benzamide]: the IC50 on BTK^WT (setting [2]) is no more than 10 nM; at BTK^C481S, no more than 10 nM; on EGFR, 1000 to 10000 nM; in assay [1] (Homo sapiens, OCI-Ly10, 72 h) it was 100 to 1000 nM.
For the compound `CC(C)Oc1ccccc1C(=O)NCc1ccc(-c2nn(C3CCCC3)c3ncnc(N)c23)cc1` [Example 8, N-[[4-(4-amino-1-cyclopentyl-pyrazolo[3,4-d]pyrimidin-3-yl)phenyl]methyl]-2-isopropoxy-benzamide], the IC50 at BTK^WT (setting [2]) is 10 to 100 nM; at BTK^C481S, no more than 10 nM; on EGFR, 1000 to 10000 nM; in assay [1] (Homo sapiens, OCI-Ly10, 72 h), 1000 to 10000 nM.
`COc1ccc(Cl)cc1C(=O)NCc1ccc(-c2nn(C3CCCC3)c3ncnc(N)c23)cc1` [Example 11, N-[[4-(4-amino-1-cyclopentyl-pyrazolo[3,4-d]pyrimidin-3-yl)phenyl]methyl]-5-chloro-2-methoxy-benzamide]: the IC50 at BTK^WT (setting [2]) was no more than 10 nM; at BTK^C481S, no more than 10 nM; on EGFR, 1000 to 10000 nM; in assay [1] (Homo sapiens, OCI-Ly10, 72 h), 10 to 100 nM.
As to `COc1ccc(C)cc1C(=O)NCc1ccc(-c2nn(C3CCCC3)c3ncnc(N)c23)cc1` [Example 12, N-[[4-(4-amino-1-cyclopentyl-pyrazolo[3,4-d]pyrimidin-3-yl)phenyl]methyl]-2-methoxy-5-methyl-benzamide], the IC50 at BTK^WT (setting [2]) was no more than 10 nM; on BTK^C481S, no more than 10 nM; at EGFR it was 1000 to 10000 nM; in assay [1] (Homo sapiens, OCI-Ly10, 72 h), 10 to 100 nM.
Consider `COc1ccccc1C(=O)NCc1ccc(-c2nn(C3CCC(=O)C3)c3ncnc(N)c23)cc1` (stereo not shown) [Example 21, N-[[4-[4-amino-1-(3-oxocyclopentyl)pyrazolo[3,4-d]pyrimidin-3-yl]phenyl]methyl]-2-methoxy-benzamide], for which the IC50 is no more than 10 nM on BTK^WT (setting [2]); no more than 10 nM on BTK^C481S; 1000 to 10000 nM at EGFR; 100 to 1000 nM in assay [1] (Homo sapiens, OCI-Ly10, 72 h).

Values taken from US10399989B2, “Pyrazolopyrimidine derivatives as BTK inhibitors for the treatment of cancer” (Loxo Oncology, Inc., priority 2016, dated 2019).
